34 molecules from patent US20090054392A1, “NAPHTHYLPYRIMIDINE, NAPHTHYLPYRAZINE AND NAPHTHYLPYRIDAZINE ANALOGS AND THEIR USE AS AGONISTS OF THE WNT-BETA-CATENIN CELLULAR MESSAGING SYSTEM” (Wyeth, priority 2007, published 2009) can be followed below.

The data set has as its system Dkk1-LRP5-TCF-Luciferase. Nature of the data set: Functional Dkk1-LRP5-TCF-Luciferase Assay in U2OS Cells. Particulars: for pEC50 / fold induction at 2 µM / fold induction at 20 µM: Homo sapiens, U2OS; for fold induction at 2 µM: read-out: B = TCF ACTIVITY/DMSO CONTROL Fold induction @ 2.0 uM, 2.0 uM compound; for fold induction at 20 µM: read-out: C = TCF ACTIVITY/DMSO CONTROL Fold induction @ 20.0 uM, 20.0 uM compound; for A = MAX FOLD Induction/DMSO CONTROL: maximum fold induction over DMSO control.

Molecules are shown by their SMILES. pEC50: −log10 of the molar value.

As usually defined, the pEC50 is the EC50 on a negative log10 scale, so that one unit is a factor of ten. Read a low pEC50 as a large EC50. `c1ccc2cc(-c3ccnc(NCCc4ccncc4)n3)ccc2c1` [4-(2-naphthyl)-N-(2-pyridin-4-ylethyl)pyrimidin-2-amine]: the pEC50 was 6.01, the fold induction at 2 µM amounted to 1.96, the fold induction at 20 µM was 0.375 and the “A = MAX FOLD Induction/DMSO CONTROL” value turned out to be 2.765 fold.

For `c1ccc2cc(-c3ccnc(NCC4CCNCC4)n3)ccc2c1` [4-(2-naphthyl)-N-(piperidin-4-ylmethyl)pyrimidin-2-amine], the fold induction at 2 µM is 1.33, the fold induction at 20 µM turned out to be 1.36 and the “A = MAX FOLD Induction/DMSO CONTROL” value is recorded as 6.120 fold.

In the case of `c1ccc(CNc2nccc(-c3ccc4ccccc4c3)n2)nc1` [4-(2-naphthyl)-N-(pyridin-2-ylmethyl)pyrimidin-2-amine], the fold induction at 2 µM is 1.72, the fold induction at 20 µM is 1.55 and the “A = MAX FOLD Induction/DMSO CONTROL” value amounted to 2.690 fold.

Consider `c1cncc(CNc2nccc(-c3ccc4ccccc4c3)n2)c1` [4-(2-naphthyl)-N-(pyridin-3-ylmethyl)pyrimidin-2-amine], for which the pEC50 is 5.23, the fold induction at 2 µM amounted to 1.55, the fold induction at 20 µM was found to be 1.41 and the “A = MAX FOLD Induction/DMSO CONTROL” value turned out to be 1.960 fold.

Turning to `c1ccc2cc(-c3ccnc(NCc4ccncc4)n3)ccc2c1` [4-(2-naphthyl)-N-(pyridin-4-ylmethyl)pyrimidin-2-amine], the negative logarithm of the EC50 (pEC50) is 5.62, the fold induction at 2 µM was 1.41, the fold induction at 20 µM came out at 1.7 and the “A = MAX FOLD Induction/DMSO CONTROL” value was 2.070 fold.

As to `O=C(N1CCCC1)N1CCC(Nc2nccc(-c3ccc4ccccc4c3)n2)CC1` [4-(2-naphthyl)-N-[1-(pyrrolidin-1-ylcarbonyl)piperidin-4-yl]pyrimidin-2-amine], the fold induction at 2 µM amounted to 1.06 and the fold induction at 20 µM came to 0.96.

As for `c1ccc2cc(-c3ccnc(N[C@@H]4CCNC4)n3)ccc2c1` [4-(2-naphthyl)-N-[(3R)-pyrrolidin-3-yl]pyrimidin-2-amine], the pEC50 is 5.03, the fold induction at 2 µM turned out to be 1.76, the fold induction at 20 µM was determined as 3.98 and the “A = MAX FOLD Induction/DMSO CONTROL” value came out at 6.560 fold.

For the molecule `c1ccc2cc(-c3ccnc(NC[C@@H]4CCNC4)n3)ccc2c1` [4-(2-naphthyl)-N-[(3R)-pyrrolidin-3-ylmethyl]pyrimidin-2-amine], the negative logarithm of the EC50 (pEC50) was 5.41, the fold induction at 20 µM worked out at 0.06 and the “A = MAX FOLD Induction/DMSO CONTROL” value came out at 7.510 fold.

`c1ccc2cc(-c3ccnc(N[C@H]4CCNC4)n3)ccc2c1` [4-(2-naphthyl)-N-[(3S)-pyrrolidin-3-yl]pyrimidin-2-amine]: the fold induction at 2 µM amounted to 2.84, the fold induction at 20 µM was determined as 0.89 and the “A = MAX FOLD Induction/DMSO CONTROL” value was determined as 1.360 fold.

As to `c1ccc2cc(-c3ccnc(NC[C@H]4CCNC4)n3)ccc2c1` [4-(2-naphthyl)-N-[(3S)-pyrrolidin-3-ylmethyl]pyrimidin-2-amine], the pEC50 was 5.43 and the “A = MAX FOLD Induction/DMSO CONTROL” value amounted to 6.810 fold.

With `c1ccc2cc(-c3ccnc(NC4CCNCC4)n3)ccc2c1` [4-(2-naphthyl)-N-piperidin-4-ylpyrimidin-2-amine], the pEC50 was 5.38, the fold induction at 2 µM amounted to 1.47, the fold induction at 20 µM was 1.75 and the “A = MAX FOLD Induction/DMSO CONTROL” value was 3.723 fold.

Regarding `CCCNc1nccc(-c2ccc3ccccc3c2)n1` [4-(2-naphthyl)-N-propylpyrimidin-2-amine], the fold induction at 2 µM is 1.28.

In the case of `O=C(Cc1ccccc1)N1CCC(CNc2nccc(-c3ccc4ccccc4c3)n2)CC1` [4-(2-naphthyl)-N-{[1-(phenylacetyl)piperidin-4-yl]methyl}pyrimidin-2-amine], the fold induction at 2 µM was determined as 1.03 and the fold induction at 20 µM was 1.87.

`O=C(N1CCCC1)N1CCC(CNc2nccc(-c3ccc4ccccc4c3)n2)CC1` [4-(2-naphthyl)-N-{[1-(pyrrolidin-1-ylcarbonyl)piperidin-4-yl]methyl}pyrimidin-2-amine]: the fold induction at 2 µM was 1.08 and the fold induction at 20 µM stood at 0.907.

For `O=C(N1CC(CNc2nccc(-c3ccc4ccccc4c3)n2)C1)C(F)(F)F` [4-(2-naphthyl)-N-{[1-(trifluoroacetyl)azetidin-3-yl]methyl}pyrimidin-2-amine], the fold induction at 2 µM was found to be 1.5.

Take `c1ccc2cc(-c3ccnc(N4CCN(CCN5CCOCC5)CC4)n3)ccc2c1` [4-(2-{4-[4-(2-naphthyl)pyrimidin-2-yl]piperazin-1-yl}ethyl)morpholine]: the pEC50 was 5.34, the fold induction at 2 µM stood at 1.53, the fold induction at 20 µM came to 3.49 and the “A = MAX FOLD Induction/DMSO CONTROL” value is on record as 2.400 fold. In addition, for the setting “20.0 uM compound, 20 µM”, the “C = TCF ACTIVITY/DMSO CONTROL Fold induction @ 20.0 uM” value is on record as 3.000 fold.

Turning to `c1ccc2cc(-c3ccnc(N4CCN(CCCN5CCOCC5)CC4)n3)ccc2c1` [4-(3-{4-[4-(2-naphthyl)pyrimidin-2-yl]piperazin-1-yl}propyl)morpholine], the fold induction at 2 µM stood at 1.29 and the fold induction at 20 µM stood at 0.01.

In the case of `NCC1(O)CCN(c2nccc(-c3ccc4ccccc4c3)n2)CC1` [4-(aminomethyl)-1-[4-(2-naphthyl)pyrimidin-2-yl]piperidin-4-ol], the pEC50 is 5.93, the fold induction at 2 µM was 1.6 and the “A = MAX FOLD Induction/DMSO CONTROL” value turned out to be 2.950 fold.

With `c1ccc2cc(-c3ccnc(N4CCC(CN5CCOCC5)CC4)n3)ccc2c1` [4-({1-[4-(2-naphthyl)pyrimidin-2-yl]piperidin-4-yl}methyl)morpholine], the negative logarithm of the EC50 (pEC50) is 5.30, the fold induction at 2 µM was determined as 0.76, the fold induction at 20 µM was 1.96 and the “A = MAX FOLD Induction/DMSO CONTROL” value is 2.380 fold.

As to `O=C1CN(CC2CCN(c3nccc(-c4ccc5ccccc5c4)n3)CC2)CCN1` [4-({1-[4-(2-naphthyl)pyrimidin-2-yl]piperidin-4-yl}methyl)piperazin-2-one], the fold induction at 2 µM was found to be 1.16 and the fold induction at 20 µM stood at 1.49.

`c1ccc2cc(-c3ccnc(N4CCC(CN5CCOCC5)C4)n3)ccc2c1` (stereo not drawn) [4-({1-[4-(2-naphthyl)pyrimidin-2-yl]pyrrolidin-3-yl}methyl)morpholine]: the pEC50 was 5.32, the fold induction at 2 µM came out at 1.07, the fold induction at 20 µM is 3.1 and the “A = MAX FOLD Induction/DMSO CONTROL” value was 2.990 fold.

In the case of `O=C1CN(CC2CCN(c3nccc(-c4ccc5ccccc5c4)n3)C2)CCN1` (stereo not drawn) [4-({1-[4-(2-naphthyl)pyrimidin-2-yl]pyrrolidin-3-yl}methyl)piperazin-2-one], the fold induction at 2 µM amounted to 1.23 and the fold induction at 20 µM is 0.46.

Turning to `c1ccc2cc(-c3ccnc(N4CCC(CN5CCSCC5)C4)n3)ccc2c1` (stereo not drawn) [4-({1-[4-(2-naphthyl)pyrimidin-2-yl]pyrrolidin-3-yl}methyl)thiomorpholine], the fold induction at 2 µM came out at 1.9.

On to `O=C(CN1CCN(c2nccc(-c3ccc4ccccc4c3)n2)CC1)N1CCOCC1` [4-({4-[4-(2-naphthyl)pyrimidin-2-yl]piperazin-1-yl}acetyl)morpholine], for which the fold induction at 2 µM came to 1.03, the fold induction at 20 µM was 2.1 and the “A = MAX FOLD Induction/DMSO CONTROL” value is listed as 1.180 fold.

Turning to `NS(=O)(=O)c1ccc(CNc2nccc(-c3ccc4ccccc4c3)n2)cc1` [4-({[4-(2-naphthyl)pyrimidin-2-yl]amino}methyl)benzenesulfonamide], the fold induction at 2 µM is 1.3 and the fold induction at 20 µM worked out at 1.06.

For the molecule `NC(=O)N1CCC(CNc2nccc(-c3ccc4ccccc4c3)n2)CC1` [4-({[4-(2-naphthyl)pyrimidin-2-yl]amino}methyl)piperidine-1-carboxamide], the fold induction at 2 µM was found to be 0.88 and the fold induction at 20 µM came out at 1.58.

`O=CN1CCCN(c2nccc(-c3ccc4ccccc4c3)n2)CC1` [4-[4-(2-naphthyl)pyrimidin-2-yl]-1,4-diazepane-1-carbaldehyde]: the fold induction at 2 µM came out at 0.87 and the fold induction at 20 µM was 1.88.

Regarding `NC(=O)N1CCCN(c2nccc(-c3ccc4ccccc4c3)n2)CC1` [4-[4-(2-naphthyl)pyrimidin-2-yl]-1,4-diazepane-1-carboxamide], the negative logarithm of the EC50 (pEC50) was 6.49, the fold induction at 2 µM is 1.5, the fold induction at 20 µM was determined as 1.79 and the “A = MAX FOLD Induction/DMSO CONTROL” value came to 2.050 fold.

As for `N=C(N)N1CCN(c2nccc(-c3ccc4ccccc4c3)n2)CC1` [4-[4-(2-naphthyl)pyrimidin-2-yl]piperazine-1-carboximidamide], the fold induction at 2 µM is 1.1 and the fold induction at 20 µM was 0.05.

In the case of `O=C(N[C@@H]1CCN(c2nccc(-c3ccc4ccccc4c3)n2)C1)c1ccc(Cl)cc1` [4-chloro-N-{(3R)-1-[4-(2-naphthyl)pyrimidin-2-yl]pyrrolidin-3-yl}benzamide], the fold induction at 2 µM amounted to 1.68.

In the case of `O=C(N[C@H]1CCN(c2nccc(-c3ccc4ccccc4c3)n2)C1)c1ccc(Cl)cc1` [4-chloro-N-{(3S)-1-[4-(2-naphthyl)pyrimidin-2-yl]pyrrolidin-3-yl}benzamide], the fold induction at 2 µM was 1.78.

Take `N#Cc1ccc(C(=O)NC2CCCC(Nc3nccc(-c4ccc5ccccc5c4)n3)C2)cc1` (stereo not drawn) [4-cyano-N-(3-{[4-(2-naphthyl)pyrimidin-2-yl]amino}cyclohexyl)benzamide]: the fold induction at 2 µM is 1.15 and the fold induction at 20 µM stood at 0.24.

Consider `N#Cc1ccc(C(=O)N[C@@H]2CCN(c3nccc(-c4ccc5ccccc5c4)n3)C2)cc1` [4-cyano-N-{(3R)-1-[4-(2-naphthyl)pyrimidin-2-yl]pyrrolidin-3-yl}benzamide], for which the fold induction at 20 µM came out at 1.29.

As for `N#Cc1ccc(C(=O)N[C@H]2CCN(c3nccc(-c4ccc5ccccc5c4)n3)C2)cc1` [4-cyano-N-{(3S)-1-[4-(2-naphthyl)pyrimidin-2-yl]pyrrolidin-3-yl}benzamide], the fold induction at 2 µM was found to be 0.84 and the fold induction at 20 µM stood at 1.24.
